Measurements published in US12528774B2, “Thiosemicarbazone compounds and uses thereof” (The Regents of the University of California, priority 2019, dated 2026).

How the values were obtained:
[1] = tested on: normal human epithelial cell line HPDE; experiment: Proliferation assay in normal epithelial cell line HPDE; format: cell-based
Method: Serum copper levels are elevated (>20 μM) in individuals with solid tumor types such as pancreatic ductal adenocarcinoma (PDAC), small cell lung carcinoma (SCLC), and prostate cancer (PC). (Refs. 43-48). These cancers rely upon elevated copper levels to sustain growth, making this transition metal a viable target for therapeutic modulation. (Ref 34).
Proliferation assay: Cells were plated in 384-well plates (500 cells/well for adherent cell lines in 30 μl volume). Drugs were serially diluted to the desired concentrations and an equivalent volume of DMSO was added to vehicle control. Following 72 h incubation, ATP content was measured using CellTiter-Glo reagent according to manufacturer's instructions (Promega, CellTiter-Glo Luminescent Cell Viability Assay), and analyzed by SpectraMax luminometer (Molecular Devices). IC50 and IC90 values, concentrations required to inhibit proliferation by 50% and 90% respectively compared to DMSO treated cells, were calculated using Prism 6.0 h (Graphpad Software).

MIAPACA2 cells = experiment: ROS measurements (CM-H2DCFDA, MitoSOX); format: cell-based, human; conditions: 24 h
Method: FIGS. 2A-2I. FIG. 2A: representative immunoblots of MIAPACA2 PDAC cells treated as indicated for 24h. FIGS. 2B-2C: reactive oxygen species (ROS) measurement using CM-H2DCFDA staining after HCT13 (25 nM)+Cu(II) (20 μM) treatment for 24h; mean fluorescence intensity (MFI); mean±SD, n=2, Student t-test, ***P<0.001. FIG. 2D-2E: mitochondrial ROS detection using MitoSOX staining in MIAPACA2 PDAC cells treated with HCT-13 (25 nM)+Cu(II) (20 μM) for 24h; mean±SD, n=2, Student t-test, ***P<0.001. FIG. 2F: oxygen consumption rate (OCR) of MIAPACA2 PDAC cells treated with HCT-13 (25 nM)+Cu(II) (20 μM). FIG. 2G: OCR of isolated mitochondria measured with or without HCT-13 (25 nM)+Cu(II) (20 μM). FIG. 2H: viability of 143 BTK parental (wild type, WT) and po cells after 48 h of treatment with the indicated HCT-13 concentrations+Cu(II) (20 μM) treatment, assessed with trypan blue staining; mean±SD, n=2, Student t-test, ***P<0.001. […]
ROS Measurements: Cellular ROS measurement was assayed with CM-H2DCFDA staining after treatment according to manufacturer's instructions (Reactive Oxygen Species (ROS) Detection Reagents, Invitrogen, #D399). […] The samples were analyzed using flow cytometry.
Mitochondrial ROS was measured using MitoSOX staining according to manufacturer's instructions (MitoSOX, Invitrogen, #M36008). […]
ROS Measurements. […] The samples were analyzed using flow cytometry. […]

[2] = tested on: PDAC (MIAPACA2, CFPAC-1) and PC (C4-2) cell lines; experiment: Cell death assays (Annexin V/PI, trypan blue) of HCT13 with ATR inhibition; format: cell-based; conditions: ATRi 250 nM VE-822, Cu(II) 20 μM, 72 h
Method: FIGS. 4A-4G show the chemical genomics screen identifying the replication stress response pathway as an actionable co-dependency of HCT13-treated cells. FIG. 4A: experimental design of a synthetic lethality screen using a library of protein kinase inhibitors against HCT13-treated cells in the presence of Cu(II) (20 μM). FIG. 4B: radar plot of screen results. FIG. 4C: z-score values for kinase inhibitors within the DNA damage response/replication stress response (DDR/RSR) pathway module. FIG. 4D: representative immunoblot of replication stress and cell death biomarkers in MIAPACA2 PDAC cells treated with HCT13 (10 nM)+Cu(II) (20 μM). […] (mean±SD, n=2, one-way ANOVA corrected for multiple comparisons by Bonferroni adjustment, * P<0.05; ** P<0.01; *** P<0.001; **** P<0.0001).
FIGS. 6A-6C provide the identification of resistance mechanisms to HCT13 using a synthetic lethality screen. […] (mean±SD, n=2, one-way ANOVA corrected for multiple comparisons by Bonferroni adjustment, * P<0.05; ** P<0.01; *** P<0.001; **** P<0.0001). […]
Viability/Apoptosis assay: Viable cells were measured by Trypan blue staining using vi-cell counter (Beckman Coulter, CA, USA). […]

[3] = HCT-13 stock solution (solubilization); format: physicochemical; conditions: aqueous with cosolvent or surfactant or cyclodextrin; aqueous 40% captisol with 1% DMSO, heating 50° C., sonication 15 minutes; read-out: concentration solubilized
Method: HCT-13 stock solution. HCT-13 was solubilized up to a concentration of 20 mg/mL in an aqueous solution of 40% captisol with 1% DMSO with the aid of heating at 50° C. and sonication for 15 minutes.

For `CN(C)C(=S)N/N=C/c1nccc2cc(F)ccc12` (mixture of isomers) [HCT13, (E)-2-((6-Fluoroisoquinolin-1-yl)methylene)-N,N-dimethylhydrazine-1-carbothioamide and (Z)-2-((6-Fluoroisoquinolin-1-yl)methylene)-N,N-dimethylhydrazine-1-carbothioamide], the “sensitivity of normal cells versus cancer models” value [1] was “markedly more resistant”, the “ROS generation (CM-H2DCFDA staining)” value (MIAPACA2 cells; HCT13 25 nM + Cu(II) 20 μM) was “induced ROS generation” and the “mitochondrial ROS (MitoSOX)” value (MIAPACA2 cells; HCT-13 25 nM + Cu(II) 20 μM) was “also observed in the mitochondria”. For the same molecule, the “interaction with ATR inhibition (cell death)” value [2] was “synergistic interaction” and the solubility at 15 min [3] was no more than 20 mg/mL.
